This note sets out measurements from patent US6518287B2, “Substituted imidazoles as dual histamine H1 and H3 agonists or antagonists” (Schering Corporation, priority 2000, dated 2003).

For one test, the target named is T1, H3 receptors (Cavia porcellus, UniProt Q9JI35).
T1 construct: The source of the H3 receptors in this experiment was guinea pig brain; from tissue; host or cells: guinea pig brain membranes
Description: H3-Receptor Binding Assay (guinea pig brain membranes). As to conditions: HCl salt of the indicated compound, 3 nM [3H]R-α-methyl histamine or [3H]Nα-methyl histamine, read-out: H3 Ave Ki. The procedure: General Procedure for H3-Receptor Binding Assay
The source of the H3 receptors in this experiment was guinea pig brain. The animals weighed 400-600 g. The brain tissue was homogenized with a solution of 50 mM Tris, pH 7.5. The final concentration of tissue in the homogenization buffer was 10% w/v. The homogenates were centrifuged at 1,000×g for 10 min. in order to remove clumps of tissue and debris. The resulting supernatants were then centrifuged at 50,000×g for 20 min. in order to sediment the membranes, which were next washed three times in homogenization buffer (50,000×g for 20 min. each). The membranes were frozen and stored at −70° C. until needed.
All compounds to be tested were dissolved in DMSO and then diluted into the binding buffer (50 mM Tris, pH 7.5) such that the final concentration was 2 μg/ml with 0.1% DMSO. Membranes were then added (400 μg of protein) to the reaction tubes. The reaction was started by the addition of 3 nM [^3H]R-α-methyl histamine (8.8 Ci/mmol) or 3 nM [^3H]N^α-methyl histamine (80 Ci/mmol) and continued under incubation at 30° C. for 30 min. Bound ligand was separated from unbound ligand by filtration, and the amount of radioactive ligand bound to the membranes was quantitated by liquid scintillation spectrometry.

The target in a further test is T2, Histamine H1 receptor (Rattus norvegicus, UniProt P31390).
T2 construct: The tissue source was male Sprague-Dawley rat brain; tissue Rockland Corporation, Gilbertsville, Pa; host or cells: male Sprague-Dawley rat brain membranes
Description: H1-Receptor Binding Assay (rat brain membranes, [3H]pyrilamine). As to conditions: HCl salt of the indicated compound, male Sprague-Dawley rat brain membranes, Cheng-Prusoff, read-out: H1 Ave Ki. The text has this:
General Procedure for H1-Receptor Binding Assay
The procedure used was based on that disclosed in V. T. Tran, R. S. L. Chang, and S. hr. Snyder, “Histamine H1 receptors identified in mammalian brain membranes with [H-3]mepyramine”, Proc. Natl. Acad. Sci. U.S.A 75 (1978) 6290-6294.
I. Tissue Preparation Protocol for Histamine H1 Receptor Binding Assay
1. The tissue source was male Sprague-Dawley rat brain. These were purchased stripped and frozen (available from Rockland Corporation, Gilbertsville, Pa.). The buffer used was ice-cold 50 mM Tris-HCl, pH 7.5. (The pH was determined at 25° C.)
2. The brains were spread out on plastic wrap on the benchtop and allowed to thaw for 10-15 min. After this, everything was kept ice-cold.
3. Two brains were put in each 50 mL round bottom centrifuge tube and 25 mL of buffer was added. Then they were broken up with a Polytron (from Brinkmann Instruments, Westbury, N.Y.) equipped with a PT-10 tip at setting 6 for 30 sec.
4. The volume in the tube was brought up to 45 mL and mixed and the particulate material was centrifuged at 1000×g (3000 rpm, SS-34 rotor) for 10 min to remove nuclei and unbroken cells.
5. Pellets were discarded and the supernatants were centrifuged 10 min at 50,000×g (20,000 rpm, SS-34 rotor).
6. The high-speed pellets were resuspended in a volume of Tris buffer equal to the original (4 mL), the contents of all tubes were pooled, and a sample was taken for BCA protein assay. The material was aliquotted, 45 mL per round-bottom tube, and the resuspension was recentrifuged. The yield of protein was approximately 20 mg/brain, so there was about 40 mg of protein per tube.
7. Pellets were frozen at −80° C.
II. H1 Histamine Receptor Binding Assay
1. FDCL and comparative compounds for assay were independently solubilized at 1 mg/ml DMSO by vortexing, or if necessary by sonication. The first dilution, 100-fold, was made in 50 mM Tris-HCl, pH 7.5, at room temperature. The three or four subsequent ten-fold serial dilutions were made in 1% DMSO/50 mM Tris-HCl, pH 7.5. Drug solutions and assay plates were kept at room temperature during the course of the assay set up.
2. Test compounds were assayed at four or five concentrations: 1, 0.1, 0.01, 0.001, and 0.0001 μg/ml. Twenty μl of drug solution was pipeted into each of three wells.
3. [^3H]Pyrilamine was diluted approximately 2000-fold with ice-cold […] Tris-HCl, pH 7.5 (to a working concentration of 20-25 nM), and put on ice.
4. A frozen tissue pellet was thawed in a 25° C. water bath, resuspended in 50 mM Tris-HCl, pH 7.5, at 1.7-2 mg/ml by brief break-up on the Polytron, and put on ice.
5. Twenty μl of diluted [^3H]pyrilamine was added to each well.
6. One hundred fifty μl of tissue suspension was added to each well.
7. The top of the plate was covered and it was placed in a 25° C. shaking water bath (about 60 oscillations/min) for 30 min.
8. Samples were filtered on a Tomtec Mach 2 harvester (available from Tomtec Corporation, Orange, Conn.) through a GF/B filter mat (from Wallac, Inc., Gaithersburg, Md.) presoaked in 0.3% polyethylenimine. Each sample was thrice washed with ice-cold 50 mM Tris-HCl, pH 7.5 dried 20 sec on the Tomtec, and dried 3-4 min in a microwave oven on a paper towel. The filter was impregnated with MELTILEX brand wax scintillant (from Wallac Corporation) and counted on a Betaplate scintillation counter (from Wallac Corporation).
9. Specific binding was determined as the difference between total and nonspecific binding. The percent inhibition in the presence of inhibitor or standard was determined using the formula:
[1-(sample binding-nonspecific binding)/specific binding]×100
For compounds that inhibit more than 50% at 1 μg/ml, an IC50 value was interpolated from proximate concentrations. […]

T1 sequence (Q9JI35 whole entry): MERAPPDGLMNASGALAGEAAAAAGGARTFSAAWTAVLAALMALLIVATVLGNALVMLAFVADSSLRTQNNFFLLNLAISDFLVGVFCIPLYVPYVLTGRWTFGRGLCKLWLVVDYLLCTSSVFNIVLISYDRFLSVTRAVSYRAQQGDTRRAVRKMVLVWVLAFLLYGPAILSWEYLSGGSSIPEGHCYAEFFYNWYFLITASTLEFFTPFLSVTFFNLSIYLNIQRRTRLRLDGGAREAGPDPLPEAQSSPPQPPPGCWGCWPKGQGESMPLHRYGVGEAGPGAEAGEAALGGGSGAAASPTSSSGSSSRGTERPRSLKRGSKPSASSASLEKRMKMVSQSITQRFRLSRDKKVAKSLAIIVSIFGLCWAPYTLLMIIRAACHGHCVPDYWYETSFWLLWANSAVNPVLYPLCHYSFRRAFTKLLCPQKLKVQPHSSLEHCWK
T2 sequence (P31390 whole entry): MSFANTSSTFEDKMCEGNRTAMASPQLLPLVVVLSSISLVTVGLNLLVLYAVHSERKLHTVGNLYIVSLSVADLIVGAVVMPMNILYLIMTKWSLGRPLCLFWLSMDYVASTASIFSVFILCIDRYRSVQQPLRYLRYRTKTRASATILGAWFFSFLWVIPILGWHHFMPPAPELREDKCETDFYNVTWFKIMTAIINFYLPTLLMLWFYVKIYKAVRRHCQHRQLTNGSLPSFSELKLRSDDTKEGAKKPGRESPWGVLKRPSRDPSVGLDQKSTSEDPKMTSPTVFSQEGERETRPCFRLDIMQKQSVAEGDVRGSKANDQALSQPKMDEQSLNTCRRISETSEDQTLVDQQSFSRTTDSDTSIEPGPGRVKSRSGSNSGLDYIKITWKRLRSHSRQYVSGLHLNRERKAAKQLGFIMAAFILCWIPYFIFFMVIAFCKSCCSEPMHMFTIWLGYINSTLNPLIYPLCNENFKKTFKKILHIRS

Broadly, the Ki is the dissociation constant of the complex between target and ligand, obtained from inhibition or displacement. For `N=C(CCCc1c[nH]cn1)NCCC(c1ccc(Cl)cc1)c1ccccn1` (stereo not shown), the Ki stood at 29 nM on H3 receptors and 201 nM on Histamine H1 receptor.

In the case of `N=C(CC(c1ccc(Cl)cc1)c1ccccn1)NCCc1c[nH]cn1` (stereo not shown), the Ki on H3 receptors stood at 8 nM.

On to `O=C(CC(c1ccc(Cl)cc1)c1ccccn1)NCCc1c[nH]cn1` (stereo not shown), for which the Ki on H3 receptors amounted to 16 nM.

Consider `O=C(CC(c1ccc(Cl)cc1)c1ccccn1)NCCCCc1c[nH]cn1` (stereo not shown), for which the Ki at H3 receptors was 0.8 nM.

With `CN(CCc1c[nH]cn1)C(=O)CC(c1ccc(Cl)cc1)c1ccccn1` (stereo not shown), the Ki on H3 receptors came out at 1 nM.

Turning to `Clc1ccc(C(CCNCCc2c[nH]cn2)c2ccccn2)cc1` (stereo not shown), the Ki came to 56 nM on H3 receptors and 600 nM at Histamine H1 receptor.

Consider `CN(CCCCc1c[nH]cn1)C(=O)CC(c1ccc(Cl)cc1)c1ccccn1` (stereo not shown), for which, at H3 receptors, the Ki turned out to be 6.5 nM.

`O=C(CCc1c[nH]cn1)NCCC(c1ccc(Cl)cc1)c1ccccn1` (stereo not shown): the Ki at H3 receptors amounted to 510 nM.

In the case of `CN(CCC(c1ccc(Cl)cc1)c1ccccn1)C(=O)CCc1c[nH]cn1` (stereo not shown), the results for the Ki at H3 receptors and at Histamine H1 receptor were 260 nM and 1000 nM, respectively.

Consider `Clc1ccc(C(CCNCCCc2c[nH]cn2)c2ccccn2)cc1` (stereo not shown), for which, on H3 receptors, the Ki is 240 nM.

With `Clc1ccc(C(CCNCCCCc2c[nH]cn2)c2ccccn2)cc1` (stereo not shown), the Ki on H3 receptors stood at 10 nM; on Histamine H1 receptor, 254 nM.

On to `CN(CCCc1c[nH]cn1)CCC(c1ccc(Cl)cc1)c1ccccn1` (stereo not shown), for which the Ki on H3 receptors worked out at 120 nM; on Histamine H1 receptor, 10 nM.

For `Clc1ccc(C(CCN(CCCCc2c[nH]cn2)CCCCc2c[nH]cn2)c2ccccn2)cc1` (stereo not shown), the Ki turned out to be 23 nM on H3 receptors and 83.5 nM on Histamine H1 receptor.

Regarding `Clc1ccc(C(NCCCCc2c[nH]cn2)c2ccccc2)cc1` (stereo not shown), the Ki on H3 receptors is 6 nM.

Take `CN(CCCCc1c[nH]cn1)CCC(c1ccc(Cl)cc1)c1ccccn1` (stereo not shown): the Ki on H3 receptors is 15 nM; at Histamine H1 receptor, 7 nM.

Regarding `C[N+](C)(CCCCc1c[nH]cn1)CCC(c1ccc(Cl)cc1)c1ccccn1` (stereo not shown), the Ki on H3 receptors is 160 nM; at Histamine H1 receptor it was 120 nM.

For the molecule `Clc1ccc(C(NCCCCc2c[nH]cn2)c2ccc(Cl)cc2)cc1`, the Ki at H3 receptors is 2 nM.

For the molecule `O=C(CC(c1ccccc1)c1ccccc1)NCCCCc1c[nH]cn1`, the Ki on H3 receptors was determined as 36 nM.

For `O=C(NCCCCc1c[nH]cn1)C(c1ccc(Cl)cc1)c1ccc(Cl)cc1`, the Ki on H3 receptors was 33.5 nM.

In the case of `O=C(/C=C(\c1ccc(Cl)cc1)c1ccccn1)NCCc1c[nH]cn1`, the Ki at H3 receptors is 37 nM.

`O=C(NCCC(c1ccc(Cl)cc1)c1ccccn1)OCCc1c[nH]cn1` (stereo not shown): the Ki on H3 receptors was 260 nM.

Regarding `O=C(CC(c1ccc(Cl)cc1)c1cccc[n+]1[O-])NCCCCc1c[nH]cn1` (stereo not shown), the Ki on H3 receptors was determined as 8.5 nM.

Regarding `O=C(CC(c1ccc(Br)cc1)c1ccccn1)NCCCCc1c[nH]cn1` (stereo not shown), the Ki on H3 receptors worked out at 50 nM.
